Experimental data from EP4737448A1, “SARM1 ENZYME ACTIVITY INHIBITOR AND USE THEREOF” (Artivila (ShenZhen) Innovation Center, Ltd., priority 2023, dated 2025).

target: T1, SARM1 (Homo sapiens, UniProt Q6SZW1); experiment: In vitro biochemical assay for inhibiting SARM1 enzymatic activity (PC6 fluorescence, NAD substrate, NMN activator); details: 0.05 µg/mL SARM1, 50 µM NAD, 50 µM PC6, 50 µM NMN, 10 min pre-incubation, 30 min at room temperature
T1 construct: the inventor produces full-length SARM1 for NADase activity assays and for screening; His (C); made in house; host or cells: HEK293 cells (transient transfection; digitonin lysate supernatant, not purified further)
T1 sequence (Q6SZW1 28-724): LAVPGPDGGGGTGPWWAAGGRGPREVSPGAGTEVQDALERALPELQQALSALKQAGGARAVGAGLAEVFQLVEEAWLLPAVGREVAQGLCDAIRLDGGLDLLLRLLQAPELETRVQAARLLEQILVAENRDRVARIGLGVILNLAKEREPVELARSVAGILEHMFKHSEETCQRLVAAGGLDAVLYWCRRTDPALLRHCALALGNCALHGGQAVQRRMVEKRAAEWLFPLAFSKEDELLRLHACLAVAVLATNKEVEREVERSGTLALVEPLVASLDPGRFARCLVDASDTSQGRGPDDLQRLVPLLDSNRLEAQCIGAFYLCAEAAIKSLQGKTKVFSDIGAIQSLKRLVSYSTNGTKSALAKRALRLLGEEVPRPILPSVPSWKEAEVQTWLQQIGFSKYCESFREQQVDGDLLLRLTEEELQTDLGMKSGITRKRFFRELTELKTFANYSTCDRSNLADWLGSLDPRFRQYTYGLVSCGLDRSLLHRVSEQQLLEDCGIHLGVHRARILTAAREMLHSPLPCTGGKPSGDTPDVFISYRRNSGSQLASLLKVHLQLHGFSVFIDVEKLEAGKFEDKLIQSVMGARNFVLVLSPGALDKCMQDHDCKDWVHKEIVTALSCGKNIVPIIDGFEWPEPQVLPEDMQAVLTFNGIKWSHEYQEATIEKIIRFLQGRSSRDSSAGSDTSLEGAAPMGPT
Method: Compounds to be tested were stocked at 200 µM or 10 mM (in DMSO), and further diluted to the desired compound concentration for the in vitro SARM1 enzyme assay and inhibitor screening.
The gene sequence encoding SARM1 protein was amplified by PCR and the PCR amplification product was constructed into the pcDNA3.1-HIS-C plasmid. This construction was completed by YouBio Biological Technology (Hunan, China).
HEK293 cells were cultured in DMEM in a 10 cm dish. The next day, cells were transfected with 15 µg of the pcDNA3.1-SARM1-HIS-C expression plasmid.
Cells were harvested 48 hours after the transfection. The SARM1 protein expressed in cells was obtained through cell lysis by digitonin, which was used for in vitro activity assay. The specific process was as follows:
Cells were digested and detached from the dish using trypsin-EDTA, centrifuged at 1000 rpm for 5 minutes, washed once with PBS, then resuspended in PBS containing 100 µM digitonin at 0.6 mL PBS for the cells in 10 cm dish and lysed for 5 min. The cells were added with trypan blue and observed under a microscope. More than 90% of the cells were confirmed to be lysed. The cells were centrifuged at 5000 rpm for 10 min, and the supernatant containing SARM1 protein was collected.
The compound was added into a solution of 50 mM Tris-HCl (pH 7.5) containing 0.05 µg/mL SARM1 to achieve a concentration of 200 µM, and then serially diluted 6 times, where each dilution was carried out by taking half of the previous solution and adding an equal volume of 50 mM Tris-HCl (pH 7.5) containing 0.05 µg/mL SARM1, yielding a set of final concentrations of the compound of either 200, 100, 50, 25, 12.5, 6.25 and 3.125 µM, or 200, 50, 12.5, 3.125, 0.78, 0.195 and 0.049 µM. No inhibitor was added in the control group. All mixtures were incubated at room temperature for 10 min.
Subsequently, 50 µM NAD, 50 µM PC6 as substrate and 50 µM NMN as activator were added to the SARM1 protein incubated with the inhibitor and reacted for 30 min at room temperature. Wherein, the aforementioned concentrations of each component represent their respective final concentrations in the reaction system
During the reaction, the fluorescence spectrum dynamics of PC6 was detected by a microplate reader, with excitation and emission wavelengths set at 390 nm and 520 nm, respectively. The activity of the protein was expressed as the reaction rate and half maximal inhibitory concentration was calculated. The higher the reaction rate, the stronger the protein activity, and the lower the inhibitory efficiency of the compound.
Dose-response curves for inhibition of SARM1 enzymatic activity for NAD by the compounds were plotted using the above method.

| Compound | IC50 [µM] |
| --- | --- |
| CC(=O)c1ccc(CC2CCN(c3ccc(-c4ccncc4)cc3)C2=O)cc1 (stereo not shown) [Compound 91, 3-(4-acetylbenzyl)-1-(4-(pyridin-4-yl)phenyl)pyrrolidin-2-one] | 10 to 30 |
| O=C1C(Cc2ccc([N+](=O)[O-])cc2)CCN1c1ccc(-c2ccncc2)cc1 (stereo not shown) [Compound 32, 3-(4-nitrobenzyl)-1-(4-(pyridin-4-yl)phenyl)pyrrolidin-2-one] | 10 to 30 |
| O=C1C(Cc2ccc(Cl)cc2)CCON1c1ccc(-c2ccncc2)cc1 (stereo not shown) [Compound 40, 4-(4-chlorobenzyl)-2-(4-(pyridin-4-yl)phenyl)-1,2-oxaza-3-one] | 1 to 10 |
| O=C1C(Cc2ccc(Cl)cc2)CCCN1c1ccc(-c2ccncc2)cc1 (stereo not shown) [Compound 38, 3-(4-chlorobenzyl)-1-(4-(pyridin-4-yl)phenyl)piperidin-2-one] | 1 to 10 |
| O=C1C(Cc2ccc(Cl)cn2)CCN1c1ccc(-c2ccncc2)cc1 (stereo not shown) [Compound 28] | 10 to 30 |
| O=C1C(Cc2ccc(Cl)o2)CCN1c1ccc(-c2ccncc2)cc1 (stereo not shown) [Compound 73] | 1 to 10 |
| Cc1cnccc1-c1ccc(N2CCC(Cc3ccc(Cl)cc3)C2=O)cc1 (stereo not shown) [Compound 14, 3-(4-chlorobenzyl)-1-(4-(3-methylpyridin-4-yl)phenyl)pyrrolidin-2-one] | < 1 |
| C=C(Cc1ccc(Cl)cc1)C(=O)Nc1ccc(-c2ccncc2)cc1 [Compound 5] | < 1 |
| O=C1C(Cc2ccc(Cl)c(F)c2)CCN1c1ccc(-c2ccncc2)cc1 (stereo not shown) [Compound 16, 3-(4-chloro-3-fluorobenzyl)-1-(4-(pyridin-4-yl)phenyl)pyrrolidin-2-one] | 1 to 10 |
| O=C1C(Cc2ccc(F)c(F)c2)=CCN1c1ccc(-c2ccncc2)cc1 [Compound 85, 3-(3,4-difluorobenzyl)-1-(4-(pyridin-4-yl)phenyl)-1,5-dihydro-2H-pyrrolidin-2-one] | 1 to 10 |
| N#Cc1ccc(CC2CCN(c3ccc(-c4ccncc4)nn3)C2=O)cc1 (stereo not shown) [Compound 61] | < 1 |
| CN1CCN(Cc2ccc(CC3CCN(c4ccc(-c5ccncc5)cc4)C3=O)cc2)CC1 (stereo not shown) [Compound 88, 3-(4-((4-methylpiperazin-1-yl)methyl)benzyl)-1-(4-(pyridin-4-yl)phenyl)pyrrolidin-2-one] | 10 to 30 |
| O=C1C(Cc2ccc(Br)cc2)CCN1c1ccc(-c2ccncc2)cc1 (stereo not shown) [Compound 31, 3-(4-bromobenzyl)-1-(4-(pyridin-4-yl)phenyl)pyrrolidin-2-one] | 10 to 30 |
| O=C1C(Cc2ccc(C(F)(F)F)cc2)CCN1c1ccc(-c2ccncc2)cc1 (stereo not shown) [Compound 18, 3-(4-trifluoromethylbenzyl)-1-(4-(pyridin-4-yl)phenyl)pyrrolidin-2-one] | 1 to 10 |
| 3-(4-chloro-2-fluorobenzyl)-1-(4-(pyridin-4-yl)phenyl)pyrrolidin-2-one [Compound 42] | 1 to 10 |
| O=C1C(Cc2ccc(Cl)cc2)CCN1c1ccc(-c2ccncc2F)cc1 (stereo not shown) [Compound 35, 3-(4-chlorobenzyl)-1-(4-(3-fluoropyridin-4-yl)phenyl)pyrrolidin-2-one] | < 1 |
| C#Cc1ccc(CC2CCN(c3ccc(-c4ccncc4)cc3)C2=O)cc1 (stereo not shown) [Compound 89, 3-(4-ethynylbenzyl)-1-(4-(pyridin-4-yl)phenyl)pyrrolidin-2-one] | 10 to 30 |
| COc1cc(-c2ccncc2)ccc1N1CCCC(Cc2ccc(Cl)cc2)C1=O (stereo not shown) [Compound 39, 3-(4-chlorobenzyl)-1-(2-methoxy-4-(pyridin-4-yl)phenyl)piperidin-2-one] | 1 to 10 |
| O=C1C(Cc2ccc(Cl)cc2)CCN1c1ccc(-c2ccncn2)cc1 (stereo not shown) [Compound 9, 3-(4-chlorobenzyl)-1-(4-(pyrimidin-4-yl)phenyl)pyrrolidin-2-one] | 1 to 10 |

| Compound | IC50 [µM] |
| --- | --- |
| O=C1C(Cc2cccc(Cl)c2)CCN1c1ccc(-c2ccncc2)cc1 (stereo not shown) [Compound 26, 3-(3-chlorobenzyl)-1-(4-(pyridin-4-yl)phenyl)pyrrolidin-2-one] | 10 to 30 |
| O=C1C(Oc2ccc(Cl)cc2)CCN1c1ccc(-c2ccncc2)cc1 (stereo not shown) [Compound 2, 3-(4-chlorophenoxy)-1-(4-(pyridin-4-yl)phenyl)pyrrolidin-2-one] | 10 to 30 |
| Cc1cnccc1-c1ccc(N2CCC(Cc3ccc(Cl)cc3)C2=O)nn1 (stereo not shown) [Compound 74, 3-(4-chlorobenzyl)-1-(6-(3-methylpyridin-4-yl)pyridazin-3-yl)pyrrolidin-2-one] | < 1 |
| O=C1C(Cc2ccc(Cl)cc2)CCN1c1cnc(-c2ccncc2)nc1 (stereo not shown) [Compound 23, 3-(4-chlorobenzyl)-1-(2-(pyridin-4-yl)pyrimidin-5-yl)pyrrolidin-2-one] | 10 to 30 |
| O=C(O)c1ccc(CC2CCN(c3ccc(-c4ccncc4)cc3)C2=O)cc1 (stereo not shown) [Compound 87, 4-((2-oxo-1-(4-(pyridin-4-yl)phenyl)pyrrolidin-3-yl)methyl)benzoic acid] | 10 to 30 |
| N#Cc1cnccc1-c1ccc(N2CCC(Cc3ccc(Cl)cc3)C2=O)cc1 (stereo not shown) [Compound 36, 3-(4-chlorobenzyl)-1-(4-(3-cyanopyridin-4-yl)phenyl)pyrrolidin-2-one] | 10 to 30 |
| CC(c1ccc(Cl)cc1)C1CCN(c2ccc(-c3ccncc3)cc2)C1=O (stereo not shown) [Compound 4, 3-(1-(4-chlorophenyl)ethyl)-1-(4-(pyridin-4-yl)phenyl)pyrrolidin-2-one] | 10 to 30 |
| O=C1N(Cc2ccc(Cl)cc2)CCN1c1ccc(-c2ccncc2)cc1 [Compound 13, 1-(4-chlorobenzyl)-3-(4-(pyridin-4-yl)phenyl)imidazolin-2-one] | < 1 |
| O=C1C(CCc2ccc(Cl)cc2)CCN1c1ccc(-c2ccncc2)cc1 (stereo not shown) [Compound 27, 3-(4-chlorophenethyl)-1-(4-(pyridin-4-yl)phenyl)pyrrolidin-2-one] | 10 to 30 |
| O=C1C(Cc2ccc(Cl)cc2)=CCN1c1ccc(-c2ccncc2)cc1 [Compound 22] | 1 to 10 |
| Cc1ccc(CC2CCN(c3ccc(-c4ccncc4)nn3)C2=O)cc1 (stereo not shown) [Compound 63] | < 1 |
| O=C1C(Cc2ccc(/C=C/Cl)cc2)CCN1c1ccc(-c2ccncc2)cc1 (stereo not shown) [Compound 90, (E)-3-(4-(2-chloroethenyl)benzyl)-1-(4-(pyridin-4-yl)phenyl)pyrrolidin-2-one] | 1 to 10 |
| NC(=O)c1cnccc1-c1ccc(N2CCC(Cc3ccc(Cl)cc3)C2=O)cc1 (stereo not shown) [Compound 37] | 1 to 10 |
| O=C1/C(=C/c2ccc(Cl)cc2)CCN1c1ccc(-c2ccncc2)nn1 [Compound 78, (E)-3-(4-chlorobenzylidene)-1-(6-(pyridin-4-yl)pyridazin-3-yl)pyrrolidin-2-one] | 10 to 30 |
| O=C1C(Cc2cc(F)cc(F)c2)CCN1c1ccc(-c2ccncc2)nn1 (stereo not shown) [Compound 68] | < 1 |
| O=C1CC(Cc2ccc(Cl)cc2)C(=O)N1c1ccc(-c2ccncc2)cc1 (stereo not shown) [Compound 43, 3-(4-chlorobenzyl)-1-(4-(pyridin-4-yl)phenyl)pyrrolidin-2,5-one] | 1 to 10 |
| N#Cc1ccc(CC2CCN(c3ccc(-c4ccncc4)cc3)C2=O)cc1 (stereo not shown) [Compound 19, 3-(4-cyanobenzyl)-1-(4-(pyridin-4-yl)phenyl)pyrrolidin-2-one] | 1 to 10 |
| S=C1C(Cc2ccc(Cl)cc2)CCN1c1ccc(-c2ccncc2)cc1 (stereo not shown) [Compound 12] | < 1 |
